Test results as given in the NIST ThermoML archive (doi:10.1016/j.jct.2011.07.008).

Key:
[1] = 298.15 K; 101.33 kPa; Liquid; Pycnometric method
[2] = refractive index (Na D-line) (dimensionless); conditions: 298.15 K; 101.33 kPa; Liquid; Standard Abbe refractometry
[3] = mn = molality of the nth substance listed, in mol/kg; conditions: 101 kPa, Liquid; for viscosity: Capillary tube (Ostwald / Ubbelohde) method

COCCOCCO [2-(2-methoxyethoxy)ethanol]
Conditions | mass density [kg/m3] | refractive index
[1] | 1014.39 | –
[2] | – | 1.4245

O [water] + COCCO
[3], m2 = 0
Conditions | viscosity [mPa·s]
275.15 K | 1.674
283.15 K | 1.31

[3], m2 = 0
Conditions | mass density [kg/m3]
275.15 K, Pycnometric method | 999.94
283.15 K, Buoyancy - hydrostatic balance with magnetic suspension - one sinker | 999.7

CCOCCO [2-ethoxyethan-1-ol]
Conditions | mass density [kg/m3] | refractive index
[1] | 925.05 | –
[2] | – | 1.4057

COCCO [2-methoxyethan-1-ol] + O
[3]
Conditions | viscosity [mPa·s]
275.15 K, m1 = 0.0097 | 1.006
275.15 K, m1 = 0.0205 | 1.011
275.15 K, m1 = 0.0313 | 1.016
275.15 K, m1 = 0.0393 | 1.02
275.15 K, m1 = 0.0487 | 1.023
275.15 K, m1 = 0.0638 | 1.028
275.15 K, m1 = 0.0719 | 1.03
275.15 K, m1 = 0.0813 | 1.032
275.15 K, m1 = 0.0905 | 1.034
275.15 K, m1 = 0.102 | 1.035
283.15 K, m1 = 0.0104 | 1.001
283.15 K, m1 = 0.0193 | 1.002
283.15 K, m1 = 0.0326 | 1.005
283.15 K, m1 = 0.0417 | 1.006
283.15 K, m1 = 0.0492 | 1.008
283.15 K, m1 = 0.0599 | 1.011
283.15 K, m1 = 0.0698 | 1.013
283.15 K, m1 = 0.0804 | 1.016
283.15 K, m1 = 0.0893 | 1.019
283.15 K, m1 = 0.0901 | 1.019
283.15 K, m1 = 0.1 | 1.023
283.15 K, m1 = 0.1013 | 1.023

[3]
Conditions | mass density [kg/m3]
275.15 K, Pycnometric method, m1 = 0.0097 | 999.96
275.15 K, Pycnometric method, m1 = 0.0205 | 999.99
275.15 K, Pycnometric method, m1 = 0.0313 | 999.99
275.15 K, Pycnometric method, m1 = 0.0393 | 1000.02
275.15 K, Pycnometric method, m1 = 0.0487 | 1000.07
275.15 K, Pycnometric method, m1 = 0.0638 | 1000.09
275.15 K, Pycnometric method, m1 = 0.0719 | 1000.1
275.15 K, Pycnometric method, m1 = 0.0813 | 1000.12
275.15 K, Pycnometric method, m1 = 0.0905 | 1000.12
275.15 K, Pycnometric method, m1 = 0.102 | 1000.17
283.15 K, Buoyancy - hydrostatic balance with magnetic suspension - one sinker, m1 = 0.0104 | 999.73
283.15 K, Buoyancy - hydrostatic balance with magnetic suspension - one sinker, m1 = 0.0193 | 999.73
283.15 K, Buoyancy - hydrostatic balance with magnetic suspension - one sinker, m1 = 0.0326 | 999.76
283.15 K, Buoyancy - hydrostatic balance with magnetic suspension - one sinker, m1 = 0.0417 | 999.81
283.15 K, Buoyancy - hydrostatic balance with magnetic suspension - one sinker, m1 = 0.0492 | 999.79
283.15 K, Buoyancy - hydrostatic balance with magnetic suspension - one sinker, m1 = 0.0599 | 999.88
283.15 K, Buoyancy - hydrostatic balance with magnetic suspension - one sinker, m1 = 0.0698 | 999.93
283.15 K, Buoyancy - hydrostatic balance with magnetic suspension - one sinker, m1 = 0.0804 | 999.91
283.15 K, Buoyancy - hydrostatic balance with magnetic suspension - one sinker, m1 = 0.0893 | 999.94
283.15 K, Buoyancy - hydrostatic balance with magnetic suspension - one sinker, m1 = 0.0901 | 999.94
283.15 K, Buoyancy - hydrostatic balance with magnetic suspension - one sinker, m1 = 0.1 | 999.95
283.15 K, Buoyancy - hydrostatic balance with magnetic suspension - one sinker, m1 = 0.1013 | 999.97

CCOCCO [2-ethoxyethan-1-ol] + O
[3]
Conditions | viscosity [mPa·s]
275.15 K, m1 = 0.0102 | 1.005
275.15 K, m1 = 0.0202 | 1.01
275.15 K, m1 = 0.0294 | 1.015
275.15 K, m1 = 0.0459 | 1.025
275.15 K, m1 = 0.0502 | 1.028
275.15 K, m1 = 0.0602 | 1.035
275.15 K, m1 = 0.071 | 1.042
275.15 K, m1 = 0.0818 | 1.05
275.15 K, m1 = 0.0902 | 1.057
275.15 K, m1 = 0.1008 | 1.065
283.15 K, m1 = 0.0067 | 1.002
283.15 K, m1 = 0.0191 | 1.006
283.15 K, m1 = 0.0303 | 1.01
283.15 K, m1 = 0.0392 | 1.014
283.15 K, m1 = 0.0492 | 1.018
283.15 K, m1 = 0.0598 | 1.022
283.15 K, m1 = 0.0682 | 1.026
283.15 K, m1 = 0.0799 | 1.032
283.15 K, m1 = 0.0885 | 1.036
283.15 K, m1 = 0.0906 | 1.037
283.15 K, m1 = 0.0996 | 1.042
283.15 K, m1 = 0.1004 | 1.043

[3]
Conditions | mass density [kg/m3]
275.15 K, Pycnometric method, m1 = 0.0102 | 999.95
275.15 K, Pycnometric method, m1 = 0.0202 | 999.95
275.15 K, Pycnometric method, m1 = 0.0294 | 999.95
275.15 K, Pycnometric method, m1 = 0.0459 | 999.96
275.15 K, Pycnometric method, m1 = 0.0502 | 999.96
275.15 K, Pycnometric method, m1 = 0.0602 | 999.97
275.15 K, Pycnometric method, m1 = 0.071 | 1000
275.15 K, Pycnometric method, m1 = 0.0818 | 1000
275.15 K, Pycnometric method, m1 = 0.0902 | 1000.01
275.15 K, Pycnometric method, m1 = 0.1008 | 1000.03
283.15 K, Buoyancy - hydrostatic balance with magnetic suspension - one sinker, m1 = 0.0067 | 999.7
283.15 K, Buoyancy - hydrostatic balance with magnetic suspension - one sinker, m1 = 0.0191 | 999.71
283.15 K, Buoyancy - hydrostatic balance with magnetic suspension - one sinker, m1 = 0.0303 | 999.71
283.15 K, Buoyancy - hydrostatic balance with magnetic suspension - one sinker, m1 = 0.0392 | 999.74
283.15 K, Buoyancy - hydrostatic balance with magnetic suspension - one sinker, m1 = 0.0492 | 999.72
283.15 K, Buoyancy - hydrostatic balance with magnetic suspension - one sinker, m1 = 0.0598 | 999.72
283.15 K, Buoyancy - hydrostatic balance with magnetic suspension - one sinker, m1 = 0.0682 | 999.73
283.15 K, Buoyancy - hydrostatic balance with magnetic suspension - one sinker, m1 = 0.0799 | 999.73
283.15 K, Buoyancy - hydrostatic balance with magnetic suspension - one sinker, m1 = 0.0885 | 999.73
283.15 K, Buoyancy - hydrostatic balance with magnetic suspension - one sinker, m1 = 0.0906 | 999.73
283.15 K, Buoyancy - hydrostatic balance with magnetic suspension - one sinker, m1 = 0.0996 | 999.76
283.15 K, Buoyancy - hydrostatic balance with magnetic suspension - one sinker, m1 = 0.1004 | 999.78
